# Where “and” joins values, the source holds several entries; their conditions need not be identical. Equal entries are not always repeated.
# System: Alpha smooth muscle actin (α-SMA) levels
# Experiment: α-SMA levels by Western blot in TGF-β-treated normal human lung fibroblasts (headed Cell Proliferation Assay)
# Type: cell-based
# Conditions: 10 ng/mL TGF-β, 24 h; for Relative α-SMA 5 μM / Relative α-SMA 20 μM: Table 4; for Relative α-SMA 5 μM: compound 5 μM; for Relative α-SMA 20 μM: compound 20 μM
# Experimental: Normal human lung fibroblasts were plated in a 6-well plate at 100,000 cells per well in 1 mL of DMEM supplemented with 10% FBS. The cells were incubated overnight at 37° C. under 5% CO2. The next day, the cells were serum starved (medium was removed and 1 mL of fresh DMEM without serum was added). The cells were incubated overnight.
# The cells were treated with a test compound in DMEM, 5% FBS in the presence of 10 ng/mL TGF-β and incubated for 24 h. The cells were lysed with an M-PER buffer. Alpha smooth muscle actin (α-SMA) levels were determined by Western blot and normalized to 0-tubulin levels using cell signaling antibodies. Blots were probed with secondary antibodies from LI-COR® Biosciences and read using a scanner from LI-COR® Biosciences. Quantification was also done using a software from LI-COR® Biosciences. The results are shown in Tables 1 to 4 below, where the control (Ctrl) is the fibroblasts in the absence of TGF-β and a test compound.
# [1] = single agent 5 μM, TGF-β alone = 1 (Tables 1-3)
# [2] = single agent 10 μM, TGF-β alone = 1
# [3] = single agent 20 μM, TGF-β alone = 1 (Tables 1-3)
SMILES,Relative α-SMA 5 μM,Relative α-SMA 20 μM,further results
"Cc1c(NS(=O)(=O)c2c(C(C)C)cc(C(C)C)cc2C(C)C)cc(O)cc1C(F)(F)F [A20, N-(5-Hydroxy-2-methyl-3-(trifluoromethyl)phenyl)-2,4,6-triisopropylbenzenesulfonamide]",0.27,,
"Cc1cc(C(C)(C)C)cc(C)c1S(=O)(=O)Nc1cc(C2CCNCC2)cc(C(F)(F)F)c1 [A22, 4-(Tert-butyl)-2,6-dimethyl-N-(3-(piperidin-4-yl)-5-(trifluoromethyl)phenyl)-benzenesulfonamide]",0.21,0.12,
"CC(C)c1cc(C(C)C)c(S(=O)(=O)Nc2cc(NC(=O)OC(C)(C)C)cc(C(F)(F)F)c2)c(C(C)C)c1 [A5, Tert-butyl (3-(trifluoromethyl)-5-((2,4,6-triisopropylphenyl)sulfonamido)-phenyl)carbamate]",0.95,0.21,
"Cc1cc(C(C)(C)C)cc(C)c1S(=O)(=O)Nc1cc(C(F)(F)F)cc(C(F)(F)F)c1 [B5, N-(3,5-bis(trifluoromethyl)phenyl)-4-(tert-butyl)-2,6-dimethylbenzene-sulfonamide]",,,Relative α-SMA [1]: 0.91; Relative α-SMA [2]: 0.75; Relative α-SMA [3]: 0.24
"Cc1cc(C(C)(C)C)cc(C)c1S(=O)(=O)Nc1cc(CCCN(C)C)cc(C(F)(F)F)c1 [A13, 4-(Tert-butyl)-N-(3-(3-(dimethylamino)propyl)-5-(trifluoromethyl)phenyl)-2,6-dimethylbenzenesulfonamide]",0.29,,
"CC(=O)Nc1cc(NS(=O)(=O)c2c(C(C)C)cc(C(C)C)cc2C(C)C)cc(C(F)(F)F)c1 [A7, N-(3-(Trifluoromethyl)-5-((2,4,6-triisopropylphenyl)sulfonamido)phenyl)-acetamide]",1.60,0.33,
"Cc1cc(C(C)(C)C)cc(C)c1S(=O)(=O)Nc1cc(Br)cc(C(F)(F)F)c1 [A16, N-(3-Bromo-5-(trifluoromethyl)phenyl)-4-(tert-butyl)-2,6-dimethylbenzenesulfonamide]",0.35,,
"Cc1cc(C(C)(C)C)cc(C)c1S(=O)(=O)Nc1cc(OCCCCN)cc(C(F)(F)F)c1 [A10, N-(3-(4-Aminobutoxy)-5-(trifluoromethyl)phenyl)-4-(tert-butyl)-2,6-dimethylbenzenesulfonamide]",0.69,,
"Cc1ccc(=O)n(-c2ccccc2)c1 [P, pirfenidone, reference compound]",,,"Relative α-SMA (single agent 200 μM, TGF-β alone = 1): 1.29 and 1.02"
"Cc1cc(C(C)(C)C)cc(C)c1S(=O)(=O)Nc1cc(OCCN(C)C)cc(C(F)(F)F)c1 [A12, 4-(Tert-butyl)-N-(3-(2-(dimethylamino)ethoxy)-5-(trifluoromethyl)phenyl)-2,6-dimethylbenzenesulfonamide]",0.37,,
"COC(=O)c1cc(NS(=O)(=O)c2c(C(C)C)cc(C(C)C)cc2C(C)C)cc(C(F)(F)F)c1 [A2, Methyl 3-(trifluoromethyl)-5-((2,4,6-triisopropylphenyl)sulfonamido)benzoate]",1.05,0.23,
"COc1cc(NS(=O)(=O)c2c(C)cc(C(C)(C)C)cc2C)cc(C(F)(F)F)c1 [A17, 4-(Tert-butyl)-N-(3-methoxy-5-(trifluoromethyl)phenyl)-2,6-dimethylbenzenesulfonamide]",0.46,,
"CC(C)c1cc(C(C)C)c(S(=O)(=O)Nc2cc(OCCCCN)cc(C(F)(F)F)c2)c(C(C)C)c1 [A11, N-(3-(4-Aminobutoxy)-5-(trifluoromethyl)phenyl)-2,4,6-triisopropylbenzenesulfonamide]",0.85,,
"Cc1cc(C(C)(C)C)cc(C)c1S(=O)(=O)Nc1cc(O)cc(C(F)(F)F)c1 [A18, 4-(Tert-butyl)-N-(3-hydroxy-5-(trifluoromethyl)phenyl)-2,6-dimethylbenzenesulfonamide]",0.57,0.28,Relative α-SMA [1]: 1.26; Relative α-SMA [2]: 0.86; Relative α-SMA [3]: 0.06
"Cc1cc(C(C)(C)C)cc(C)c1S(=O)(=O)Nc1cc(C2CCN(C)CC2)cc(C(F)(F)F)c1 [A15, 4-(Tert-butyl)-2,6-dimethyl-N-(3-(1-methylpiperidin-4-yl)-5-(trifluoromethyl)-phenyl)benzenesulfonamide]",0.31,,
"Cc1cc(C(C)(C)C)cc(C)c1S(=O)(=O)Nc1cc(CCCN2CCOCC2)cc(C(F)(F)F)c1 [A14, 4-(Tert-butyl)-2,6-dimethyl-N-(3-(3-morpholinopropyl)-5-(trifluoromethyl)-phenyl)benzenesulfonamide]",0.53,,
"Cc1c(NS(=O)(=O)c2c(C(C)C)cc(C(C)C)cc2C(C)C)cc(C(F)(F)F)cc1C(F)(F)F [B4, N-(2-methyl-3,5-bis(trifluoromethyl)phenyl)-2,4,6-triisopropyl-benzene-sulfonamide]",,,"Relative α-SMA (single agent 2 μM, normalized to tubulin, TGF-β alone = 1): 0.95; Relative α-SMA [1]: 0.69; Relative α-SMA [2]: 0.15"
"Cc1cc(C(C)(C)C)cc(C)c1S(=O)(=O)Nc1cc(OCCCC#N)cc(C(F)(F)F)c1 [A9, 4-(Tert-butyl)-N-(3-(3-cyanopropoxy)-5-(trifluoromethyl)phenyl)-2,6-dimethylbenzenesulfonamide]",1.05,0.78,
"CCCCNC(=O)c1cc(NS(=O)(=O)c2c(C(C)C)cc(C(C)C)cc2C(C)C)cc(C(F)(F)F)c1 [A4, N-Butyl-3-(trifluoromethyl)-5-((2,4,6-triisopropylphenyl)sulfonamido)benzamide]",1.30,0.46,
"CC(C)c1cc(C(C)C)c(S(=O)(=O)Nc2cc(C(=O)O)cc(C(F)(F)F)c2)c(C(C)C)c1 [A3, 3-(Trifluoromethyl)-5-((2,4,6-triisopropylphenyl)sulfonamido)benzoic acid]",0.79,0.73,
"CCN(CC)c1cc(NS(=O)(=O)c2c(C(C)C)cc(C(C)C)cc2C(C)C)cc(C(F)(F)F)c1 [A8, N-(3-(Diethylamino)-5-(trifluoromethyl)phenyl)-2,4,6-triisopropylbenzenesulfonamide]",0.88,0.33,
"COC(=O)c1ccc2c(c1)NC(=O)/C2=C(\Nc1ccc(N(C)C(=O)CN2CCN(C)CC2)cc1)c1ccccc1 [N, nintedanib, reference compound]",,,Relative α-SMA [1]: 0.82 and 0.92 and 0.97
"Cc1cc(NS(=O)(=O)c2c(C(C)C)cc(C(C)C)cc2C(C)C)cc(C(F)(F)F)c1 [A1, 2,4,6-Triisopropyl-N-(3-methyl-5-(trifluoromethyl)phenyl)benzenesulfonamide]",0.98,0.37,
"CC(C)c1cc(C(C)C)c(S(=O)(=O)Nc2cc(N)cc(C(F)(F)F)c2)c(C(C)C)c1 [A6, N-(3-Amino-5-(trifluoromethyl)phenyl)-2,4,6-triisopropylbenzenesulfonamide]",1.08,0.05,
"Cc1c(Br)cc(C(F)(F)F)cc1NS(=O)(=O)c1c(C(C)C)cc(C(C)C)cc1C(C)C [A21, N-(3-Bromo-2-methyl-5-(trifluoromethyl)phenyl)-2,4,6-triisopropylbenzenesulfonamide]",0.45,,
"COc1cc(NS(=O)(=O)c2c(C(C)C)cc(C(C)C)cc2C(C)C)c(C)c(C(F)(F)F)c1 [A19, 2,4,6-Triisopropyl-N-(5-methoxy-2-methyl-3-(trifluoromethyl)phenyl)-benzenesulfonamide]",0.56,,

# — patent US20230201144A1, “BIARYLSULFONAMIDES AND PHARMACEUTICAL COMPOSITIONS THEREOF, AND THEIR USE FOR TREATING FIBROTIC LUNG DISEASE” (NovoMedix, LLC, priority 2020, published 2023)
